“Also recorded” adds a separate entry of the source.
What was measured:
[1] = system: PDAC tumors lacking p53 (KPPF); experiment: Survival of PDAC genetically engineered mice under treatment (Kaplan-Meier, log rank); assay type: in vivo
From the text: Mice. FSF-Kras^G12D/+ (Schonhuber et al., 2014), Pdx1-Flp (Schonhuber et al., 2014), Trp53^frt/+ (Lee et al., 2012), LSL-Kras^G12D/+ (Hingorani et al., 2005), Pdx1-Cre (Hingorani et al., 2005), αSMA-Cre (LeBleu et al., 2013), αSMA-RFP (LeBleu et al., 2013), Rosa26-loxP-Stop-loxP-YFP (Ozdemir et al., 2014), Tgfbr2^loxP/loxP (Ijichi et al., 2006), and IL-6^loxP/loxP (Quintana et al., 2013) mouse strains were previously documented. The Rosa26-CAG-loxP-frt-Stop-frt-FireflyLuc-EGFP-loxP-RenillaLuc-tdTomato (referred to as R26^Dual), FSF-Kras^G12D/+, Pdx1-Flp, and Trp53^frt/+ strains were kindly provided by D. Saur, and the R26R-Brainbow2.1/Confetti (referred to as R26^Confetti) strain was purchased from Jackson Laboratory (Stock 013731). The IL-6^−/− strain was generated by crossing the IL-6^loxP/loxP strain with CMV-Cre strain (Jackson Laboratory; Stock 006054). The FAP-TK transgenic strain was newly generated: a 5 kb sequence flanking the FAP promoter and partial Exon 1 (Ex1) was cloned into pORF-HSV1-TK vector (Invivogen) using NotI and AgeI. The sequence-confirmed FAP-TK construct was released from the vector using NotI and SwaI before purification and injection into fertilized eggs. The transgenic mice were generated on the C57Bl/6 genetic background. These mice were bred onto PDAC GEM or implanted orthotopically with 689KPC cancer cells, as previously described (Kamerkar et al., 2017). Mice were maintained on a mixed genetic background and both male and female mice were evaluated. Mice were given gemcitabine (G-4177, LC Laboratories) intraperitoneally (i.p.) twice per week at 40 mg/kg of body weight. Gemcitabine treatment was initiated at 35 days of age. Ganciclovir (GCV; sud-gcv, Invivogen) was administered i.p. daily at 50 mg/kg of body weight ([…]). GCV was administered to PKT mice at 28 to 30 days of age, and to PKP mice at 50-51 days of age. Some of the tissues analyzed from the PKT;αSMA-TK GEM were from mice that were previously published (Ozdemir et al., 2014). […]

PDAC tumors (KPPF GEM) [2] = experiment: Histopathological scoring and tumor burden of pancreas tumors; assay type: in vivo; settings: gemcitabine in KPPF;IL-6smaKO vs KPPF mice
From the text: Mice. FSF-Kras^G12D/+ (Schonhuber et al., 2014), Pdx1-Flp (Schonhuber et al., 2014), Trp53^frt/+ (Lee et al., 2012), LSL-Kras^G12D/+ (Hingorani et al., 2005), Pdx1-Cre (Hingorani et al., 2005), αSMA-Cre (LeBleu et al., 2013), αSMA-RFP (LeBleu et al., 2013), Rosa26-loxP-Stop-loxP-YFP (Ozdemir et al., 2014), Tgfbr2^loxP/loxP (Ijichi et al., 2006), and IL-6^loxP/loxP (Quintana et al., 2013) mouse strains were previously documented. The Rosa26-CAG-loxP-frt-Stop-frt-FireflyLuc-EGFP-loxP-RenillaLuc-tdTomato (referred to as R26^Dual), FSF-Kras^G12D/+, Pdx1-Flp, and Trp53^frt/+ strains were kindly provided by D. Saur, and the R26R-Brainbow2.1/Confetti (referred to as R26^Confetti) strain was purchased from Jackson Laboratory (Stock 013731). The IL-6^−/− strain was generated by crossing the IL-6^loxP/loxP strain with CMV-Cre strain (Jackson Laboratory; Stock 006054). […] Mice were maintained on a mixed genetic background and both male and female mice were evaluated. […] Some of the tissues analyzed from the PKT;αSMA-TK GEM were from mice that were previously published (Ozdemir et al., 2014). […]
Histopathological Scoring. […] Tumor scores for orthotopic tumors were attributed on a scale from 1 (minor involvement) to 4 (extensive involvement), which evaluated on H&E sections of the entire pancreas the relative tumor involvement. […]

[3] = system: IL-6 and Acta2 (αSMA) transcripts; experiment: qPCR and immunolabeling of IL-6 and αSMA in tumors; assay type: in vivo; settings: tumors of KPPF mice following gemcitabine treatment
Description: Formalin-fixed, paraffin-embedded (FFPE) sections were processed for immunohistochemical (IHC) staining as previously described (Zheng et al., 2015), after Citrate based antigen retrieval (pH=6). For FAP staining in mouse FFPE sections citrate-based antigen retrieval was performed at pH 7.4. Staining for αSMA was performed with M.O.M. kit (Vector Laboratories) following the manufacturer's instructions. For all other staining, sections were incubated with biotinylated goat anti-rabbit and streptavidin HRP (Biocare Medical), each for 10 min. For all staining, counterstaining with hematoxylin was performed and DAB positivity was examined in ten visual fields at 200× magnification. […] The images were quantified for positive area using NIH ImageJ analysis software (αSMA, CD31, CK19, cleaved caspase-3, Ki67, MTS, phospho-Akt, phospho-ERK1/2, phospho-Stat3). For αSMA and FAP double immunofluorescence in human FFPE sections, secondary anti-sheep Alexa Fluor 488 and anti-mouse Alexa Fluor 534 antibodies were incubated for 30 min at RT. […]
Gene expression analyses and global gene expression profiling. […] The expression level of detected genes was normalized to that of Gapdh housekeeping gene. […] Primer sequences for detected genes are listed below. […]

[4] = system: phospho-Stat3, phospho-ERK1/2, phospho-Akt; experiment: Immunohistochemistry for phospho-Stat3, phospho-ERK1/2 and phospho-Akt in tumors; assay type: in vivo, mice
Description: (§1) Formalin-fixed, paraffin-embedded (FFPE) sections were processed for immunohistochemical (IHC) staining as previously described (Zheng et al., 2015), after Citrate based antigen retrieval (pH=6). For FAP staining in mouse FFPE sections citrate-based antigen retrieval was performed at pH 7.4. Staining for αSMA was performed with M.O.M. kit (Vector Laboratories) following the manufacturer's instructions. For all other staining, sections were incubated with biotinylated goat anti-rabbit and streptavidin HRP (Biocare Medical), each for 10 min. For all staining, counterstaining with hematoxylin was performed and DAB positivity was examined in ten visual fields at 200× magnification. […] The images were quantified for positive area using NIH ImageJ analysis software (αSMA, CD31, CK19, cleaved caspase-3, Ki67, MTS, phospho-Akt, phospho-ERK1/2, phospho-Stat3). For αSMA and FAP double immunofluorescence in human FFPE sections, secondary anti-sheep Alexa Fluor 488 and anti-mouse Alexa Fluor 534 antibodies were incubated for 30 min at RT. For αSMA and FAP IHC on FAP-TK and control tumor sections, immunoreactive score (IRS) were obtained from the sum of distribution and intensity scores for each section, established on a scale of 1 to 4 (Meyerholz & Beck, 2018).

PDAC tumors (KPPF GEM) [5] = experiment: Immunohistochemistry/staining of pancreas sections for CD31, Ki67, cleaved caspase 3 and MTS; assay type: in vivo, mice
Description: as §1
Histopathological Scoring. Mouse tissues were fixed in 10% neutral buffered formalin, embedded in paraffin, and sectioned at 5 μm thickness. Sections were processed for haematoxylin and eosin (H&E) staining and/or Masson's trichrome staining (MTS) using Gomori's Trichome Stain Kit (38016SS2, Leica Biosystems). Histopathological assessments were conducted in a blinded fashion by scoring H&E-stained sections for relative percentages of the listed histopathological phenotypes. Tumor scores for orthotopic tumors were attributed on a scale from 1 (minor involvement) to 4 (extensive involvement), which evaluated on H&E sections of the entire pancreas the relative tumor involvement. Microscopic metastases were examined in H&E-stained tissue sections of the liver and lung. Positivity (one or more lesions in one tissue) was confirmed by CK19 staining. Images were obtained with a Leica DM 1000 LED microscope and an MC120 HD Microscope Camera with Las V4.4 Software (Leica).

intra-tumoral T cells = experiment: Flow cytometry characterization of tumor immune infiltration; assay type: in vivo; settings: gemcitabine treatment, mice with IL-6
Description: For the characterization of immune infiltration, tumors (from 2.5-month-old mice, treated with saline or gemcitabine for 2 weeks) were weighed, minced with gentleMACS Dissociator, and digested in 2 mL solution containing 1 mg/mL Liberase TL (Roche) and 0.2 mg/mL DNase I in DMEM media at 37° C. for 30 min. Spleens were weighed and filtered through a 100 μm mesh. Peripheral blood was collected with EDTA-tube, incubated with ACK lysis buffer for 5 min, and proceeded to mesh filtration. The tissue lysates were filtered through a 100 μm mesh before immunostaining. The subsequent single-cells suspension was stained with Fixable Viability Dye eFluor 780 (eBioscience) and antibodies specified in Table 2. The percentage positive cells were analyzed by FlowJo 10.1 and gated on CD45 positivity. Unstained, viability stain only, and single-stained beads (eBioscience) were used as compensation controls. Singlets were gated using forward scatter (FSC) height (FSC-H) and FSC area (FSC-A) event characteristics.

[6] = gemcitabine with loss of IL-6 from αSMA+ CAFs (KPPF;IL-6smaKO)
[7] = tumors of KPPF mice treated with gemcitabine
[8] = gemcitabine in mice with αSMA+ CAFs-specific loss of IL-6, vs controls

Nc1ccn([C@@H]2O[C@H](CO)[C@@H](O)C2(F)F)c(=O)n1 [gemcitabine]
overall survival ([1]; KPPF mice, gemcitabine 40 mg/kg i.p. twice per week, vs untreated KPPF mice): no benefit
overall survival ([1]; KPPF;IL-6smaKO mice (αSMA+ CAFs-specific loss of IL-6) treated with gemcitabine, vs KPPF mice treated with gemcitabine): increase in overall survival; also recorded: overall increase in survival
overall survival ([1]; KPPF;IL-6−/− mice (absent IL-6) treated with gemcitabine, vs KPPF mice treated with gemcitabine): increased overall survival; also recorded: overall increase in survival
tumor burden (PDAC tumors (KPPF GEM) [2]): reduced tumor burden
histopathology (PDAC tumors (KPPF GEM) [2]; moribund endpoint): improved histopathology
IL-6 transcript levels and positive cells [3]: elevated
αSMA transcript levels and αSMA+ CAFs [3]: elevated
gemcitabine-induced change in phosphorylated Akt [4, 6]: significantly attenuated
gemcitabine-induced change in phosphorylated ERK1/2 [4, 6]: significantly attenuated
gemcitabine-induced change in phosphorylated Stat3 [4, 6]: significantly attenuated
levels of phosphorylated Akt in cancer cells [4, 7]: elevated levels
levels of phosphorylated ERK1/2 in cancer cells [4, 7]: elevated levels
levels of phosphorylated Stat3 in cancer cells [4, 7]: elevated levels
cleaved caspase-3, indicative of apoptosis (PDAC tumors (KPPF GEM) [5]; gemcitabine concurrent with αSMA+ CAFs-specific loss of IL-6): further increased
cancer cell proliferation (PDAC tumors (KPPF GEM) [5]; [8]): did not significantly impact
tumor collagen deposition (PDAC tumors (KPPF GEM) [5]; [8]): did not significantly impact
tumor vasculature (PDAC tumors (KPPF GEM) [5]; [8]): did not significantly impact
cleaved caspase-3, indicative of apoptosis (PDAC tumors (KPPF GEM) [5]; mice treated with gemcitabine): elevated
intra-tumoral T cell frequencies (intra-tumoral T cells): minimally impacted

— US20220144938A1, “IDENTIFICATION AND TARGETING OF TUMOR PROMOTING CARCINOMA ASSOCIATED FIBROBLASTS FOR DIAGNOSIS AND TREATMENT OF CANCER AND OTHER DISEASES” (Board of Regents, The University of Texas System, priority 2018, published 2022)
